From US9914706B2, “N-substituted pyrazolyl guanidine F1F0-ATPase inhibitors and therapeutic uses thereof” (Lycera Corporation, priority 2013, dated 2018)
Read-outs that look alike come from different tables or passages of the source.

System: Ramos cells
Experiment: Cytotoxicity in Ramos cells
Type: cell-based
Conditions: read-out: Ramos Cell EC50
Protocol: Exemplary compounds described in above Examples were tested for activity against F1F0-ATPase by measuring the ability of the compounds to inhibit ATP synthesis. In addition, the compounds were assessed for cytotoxicity in Ramos cells. Inhibition of F1F0-ATPase activity in synthesizing ATP and cytotoxicity in Ramos cells were measured according to the procedures described in K. M. Johnson et al. Chemistry & Biology 2005, 12, 485-496.

Compound | EC50 (Homo sapiens) [µM] | EC50 [µM]
O=C(/N=C(/Nc1cc(F)cc(Cl)c1)Nc1cc(C(F)(F)F)nn1C1CCCCC1)c1cccc(Cl)c1 [Compound A-27] | < 10 | –
Cc1c(C(F)(F)F)nn(-c2ccc(F)cc2)c1N/C(=N\C(=O)c1ccc(C(F)(F)F)cc1)Nc1cc(F)cc(Cl)c1 [Compound A-24] | < 10 | –
O=C(/N=C(/Nc1cc(F)cc(Cl)c1)Nc1ccnn1-c1ccccc1)c1ccc(F)c(F)c1 [Compound A-30] | < 10 | –
O=C(/N=C(/Nc1cc(F)cc(Cl)c1)Nc1cc(C(F)(F)F)nn1C1CCCC1)c1ccc(Cl)cc1Cl [Compound A-46] | < 10 | –
O=C(/N=C(/Nc1cc(F)cc(Cl)c1)Nc1cc(C(F)(F)F)nn1C1CCCC1)c1ccc(Cl)cc1F [Compound A-42] | < 10 | –
O=C(/N=C(/Nc1cccc(Cl)c1)Nc1cc(C(F)(F)F)nn1-c1ccc(F)cc1)c1ccc(Cl)cc1 [Compound A-17] | < 10 | –
COc1cccc(C(=O)/N=C(/Nc2cc(F)cc(Cl)c2)Nc2cc(C(F)(F)F)nn2C2CCCC2)c1 [Compound A-49] | < 10 | –
O=C(/N=C(/Nc1cccc(C(F)(F)F)c1)Nc1cc(C(F)(F)F)nn1-c1ccccc1)c1ccc(Cl)cc1 [Compound A-15] | < 10 | –
O=C(/N=C(/Nc1cc(F)cc(Cl)c1)Nc1cc(C(F)(F)F)nn1-c1cc(O)cc(O)c1)c1ccc(F)c(F)c1 [Compound A-35] | < 10 | –
N#Cc1cccc(C(=O)/N=C(/Nc2cc(F)cc(Cl)c2)Nc2cc(C(F)(F)F)nn2C2CCCC2)c1 [Compound A-54] | < 10 | –
O=C(/N=C(/Nc1cc(F)cc(Cl)c1)Nc1cc(C(F)(F)F)nn1-c1cccnc1)c1cccc(Cl)c1 [Compound A-32] | < 10 | –
O=C(O)Cn1nc(C(F)(F)F)cc1N/C(=N\C(=O)c1ccc(C(F)(F)F)cc1)Nc1cc(F)cc(Cl)c1 [Compound A-5] | < 10 | –
Cc1c(C(F)(F)F)nn(-c2ccc(F)cc2)c1N/C(=N\C(=O)c1cccc(Cl)c1)Nc1cc(F)cc(Cl)c1 [Compound A-23] | < 10 | –
O=C(/N=C(/Nc1cc(F)cc(Cl)c1)Nc1cc(C(F)(F)F)nn1-c1ccccc1)c1ccc(Cl)cc1 [Compound A-13] | < 10 | –
N#Cc1ccc(C(=O)/N=C(/Nc2cccc(Cl)c2)Nc2cc(C(F)(F)F)nn2C2CCCC2)cc1 [Compound A-52] | < 10 | –
O=C(/N=C(/Nc1cc(F)cc(Cl)c1)Nc1cc(C(F)(F)F)nn1-c1cccc(Cl)c1)c1cccc(Cl)c1 [Compound A-20] | < 10 | –
O=C(/N=C(/Nc1cc(F)cc(Cl)c1)Nc1cc(C(F)(F)F)nn1C1CCCC1)c1cc(F)c(Cl)cc1F [Compound A-40] | < 10 | –
Cc1c(C(F)(F)F)nn(CCO)c1N/C(=N\C(=O)c1ccc(C(F)(F)F)cc1)Nc1cc(F)cc(Cl)c1 [Compound A-7] | < 10 | –
COc1ccc(C(=O)/N=C(/Nc2cccc(Cl)c2)Nc2cc(C(F)(F)F)nn2CCO)cc1 [Compound A-8] | < 10 | –
COc1ccc(C(=O)/N=C(/Nc2cccc(C(F)(F)F)c2)Nc2cc(C(F)(F)F)nn2CCO)cc1 [Compound A-9] | < 10 | –

Compound | EC50 (Homo sapiens) [µM] | EC50 [µM]
O=C(/N=C(/Nc1cc(F)cc(Cl)c1)Nc1cc(C(F)(F)F)nn1C1CCCC1)c1cccc(Cl)c1F [Compound A-44] | < 10 | –
O=C(/N=C(/Nc1cc(F)cc(Cl)c1)Nc1cc(C(F)(F)F)nn1CC(O)CO)c1cccc(Cl)c1 (single isomer, unassigned) [Compound A-10] | < 10 | –
CC(O)Cn1nc(C(F)(F)F)cc1N/C(=N\C(=O)c1ccc(C(F)(F)F)cc1)Nc1cc(F)cc(Cl)c1 (stereo not shown) [Compound A-3] | < 10 | –
O=C(/N=C(/Nc1cc(F)cc(Cl)c1)Nc1cc(C(F)(F)F)nn1-c1ccc(F)cc1)c1cccc(Cl)c1 [Compound A-19] | < 10 | –
O=C(/N=C(/Nc1cc(F)cc(Cl)c1)Nc1cc(C(F)(F)F)nn1C1CCCC1)c1cccc(F)c1 [Compound A-50] | < 10 | –
O=C(/N=C(/Nc1cc(F)cc(Cl)c1)Nc1cc(C(F)(F)F)nn1-c1cccc(Cl)c1)c1ccc(C(F)(F)F)cc1 [Compound A-21] | < 10 | –
O=C(/N=C(/Nc1cc(F)cc(Cl)c1)Nc1cc(C(F)(F)F)nn1C1CCCC1)c1ccc(Cl)c(F)c1 [Compound A-45] | < 10 | –
O=C(/N=C(/Nc1cccc(Cl)c1F)Nc1cc(C(F)(F)F)nn1-c1cccc(Cl)c1)c1ccc(F)c(F)c1 [Compound A-22] | < 10 | –
O=C(/N=C(/Nc1cccc(Cl)c1)Nc1cc(C(F)(F)F)nn1C1CCCC1)c1ccccc1Cl [Compound A-57] | < 10 | –
Cc1c(Cl)cccc1C(=O)/N=C(/Nc1cc(F)cc(Cl)c1)Nc1cc(C(F)(F)F)nn1C1CCCC1 [Compound A-43] | < 10 | –
O=C(/N=C(/Nc1cc(F)cc(Cl)c1)Nc1cc(C(F)(F)F)nn1-c1ccc(F)cc1)c1ccc(Cl)cc1 [Compound A-16] | < 10 | –
NC(=O)Cn1nc(C(F)(F)F)cc1N/C(=N\C(=O)c1ccc(C(F)(F)F)cc1)Nc1cc(F)cc(Cl)c1 [Compound A-6] | < 10 | –
O=C(N=C(Nc1cc(F)cc(Cl)c1)Nc1cc(C(F)(F)F)nn1C1CCCC1)c1ccc(Cl)cc1 [Compound A-58, 4-chloro-N-(((3-chloro-5-fluorophenyl)amino)((1-cyclopentyl-3-(trifluoromethyl)-1H-pyrazol-5-yl)amino)methylene)benzamide] | < 10 | –
O=C(/N=C(/Nc1cccc(Cl)c1)Nc1cc(C(F)(F)F)nn1C1CCCC1)c1ccc(Cl)cc1 [Compound A-53] | < 10 | –
CCOC(=O)Cn1nc(C(F)(F)F)cc1N/C(=N\C(=O)c1ccc(C(F)(F)F)cc1)Nc1cc(F)cc(Cl)c1 [Compound A-4] | < 10 | –
O=C(/N=C(/Nc1cc(F)cc(Cl)c1)Nc1cc(C(F)(F)F)nn1C1CCCC1)c1ccccc1Cl [Compound A-56] | < 10 | –
Cc1cc(Cl)ccc1C(=O)/N=C(/Nc1cc(F)cc(Cl)c1)Nc1cc(C(F)(F)F)nn1C1CCCC1 [Compound A-41] | < 10 | –
Cc1c(C(F)(F)F)nn(-c2ccc(F)cc2)c1N/C(=N\C(=O)c1ccc(F)c(F)c1)Nc1cccc(Cl)c1F [Compound A-25] | < 10 | –
O=C(/N=C(/Nc1cccc(Cl)c1)Nc1cc(C(F)(F)F)nn1-c1ccccc1)c1ccc(Cl)cc1 [Compound A-14] | < 10 | –
COc1cc(O)cc(-n2nc(C(F)(F)F)cc2N/C(=N\C(=O)c2ccc(F)c(F)c2)Nc2cc(F)cc(Cl)c2)c1 [Compound A-34] | < 10 | –

Compound | EC50 (Homo sapiens) [µM] | EC50 [µM]
COC(=O)N1CCC(n2nc(C(F)(F)F)cc2N/C(=N\C(=O)c2cccc(Cl)c2)Nc2cc(F)cc(Cl)c2)CC1 [Compound A-38] | < 10 | –
O=C(/N=C(/Nc1cc(F)cc(Cl)c1)Nc1cc(C(F)(F)F)nn1C1CCCC1)c1ccc(F)c(F)c1 [Compound A-33] | < 10 | –
N#Cc1ccc(C(=O)/N=C(/Nc2cc(F)cc(Cl)c2)Nc2cc(C(F)(F)F)nn2C2CCCC2)cc1 [Compound A-51] | < 10 | –
O=C(/N=C(/Nc1cc(F)cc(Cl)c1)Nc1ccnn1-c1ccccc1)c1cccc(Cl)c1 [Compound A-29] | < 10 | –
N#CCCn1nc(C(F)(F)F)cc1N/C(=N\C(=O)c1ccc(C(F)(F)F)cc1)Nc1cc(F)cc(Cl)c1 [Compound A-2] | < 10 | –
O=C(/N=C(/Nc1cc(F)cc(Cl)c1)Nc1cc(C(F)(F)F)nn1C1CCCC1)c1cc(F)c(Cl)cc1Cl [Compound A-39] | < 10 | –
Cc1cc(F)ccc1C(=O)/N=C(/Nc1cc(F)cc(Cl)c1)Nc1cc(C(F)(F)F)nn1C1CCCC1 [Compound A-47] | < 10 | –
O=C(/N=C(/Nc1cc(F)cc(Cl)c1)Nc1cc(C(F)(F)F)nn1CCO)c1ccc(C(F)(F)F)cc1 [Compound A-1] | < 10 | –
COc1cc(OC)cc(-n2nc(C(F)(F)F)cc2N/C(=N\C(=O)c2ccc(F)c(F)c2)Nc2cc(F)cc(Cl)c2)c1 [Compound A-31] | < 10 | –
O=C(/N=C(/Nc1cccc(C(F)(F)F)c1)Nc1cc(C(F)(F)F)nn1-c1ccc(F)cc1)c1ccc(Cl)cc1 [Compound A-18] | < 10 | –
O=C(/N=C(/Nc1cc(F)cc(Cl)c1)Nc1cc(C(F)(F)F)nn1C1CCCC1)c1cccc(Cl)c1 [Compound A-26] | < 10 | –
O=C(/N=C(/Nc1cc(F)cc(Cl)c1)Nc1cc(C(F)(F)F)nn1C1CCOCC1)c1cccc(Cl)c1 [Compound A-36] | < 10 | –
C=CCn1nc(C(F)(F)F)cc1N/C(=N\C(=O)c1cccc(Cl)c1)Nc1cc(F)cc(Cl)c1 [Compound A-12] | < 10 | –
O=C(/N=C(/Nc1cc(F)cc(Cl)c1)Nc1cc(C(F)(F)F)nn1C1CCCCC1)c1ccc(F)c(F)c1 [Compound A-28] | < 10 | –
O=C(/N=C(/Nc1cc(F)cc(Cl)c1)Nc1cc(C(F)(F)F)nn1C1CCCC1)c1c(F)cccc1F [Compound A-48] | < 10 | –
CS(=O)(=O)N1CCC(n2nc(C(F)(F)F)cc2N/C(=N\C(=O)c2cccc(Cl)c2)Nc2cc(F)cc(Cl)c2)CC1 [Compound A-37] | < 10 | –
N#Cc1cccc(C(=O)/N=C(/Nc2cccc(Cl)c2)Nc2cc(C(F)(F)F)nn2C2CCCC2)c1 [Compound A-55] | < 10 | –
O=C(/N=C(/Nc1cc(F)cc(Cl)c1)Nc1cc(C(F)(F)F)nn1CC(O)CO)c1cccc(Cl)c1 (single isomer, unassigned) [Compound A-11] | – | < 10
